The test has as its target Elastase (Pseudomonas aeruginosa (strain ATCC 15692 / DSM 22644 / CIP 104116 / JCM 14847 / LMG 12228 / 1C / PRS 101 / PAO1), UniProt P14756). The test can be described thus: In Vitro LasB Activity Assay. As to the method: Fluorescence intensity was measured for 60 min at 37° C. in black 384-well microtiter plates (Greiner BioOne, Kremsm nster, Austria) using a CLARIOstar microplate reader (BMG Labtech, Ortenberg, Germany) with an excitation wavelength of […] and an emission wavelength of 415±20 nm. The assay was performed in a final volume of 50 μL of assay buffer (50 mM Tris, pH 7.2, 2.5 mM CaCl2), 0.075% Pluronic F-127, 5% DMSO) containing LasB at a final concentration of […] 0.3 nM and the substrate at 150 μM. Before substrate addition, compounds were preincubated with the enzyme at 37° C. for 15 min. Experiments were performed in duplicates and repeated for at least two times. Blank controls without enzyme were performed. After blank subtraction, the slope of samples containing inhibitors (v) was divided by the slope of a simultaneously started uninhibited enzymatic reaction (v0).

Results on one compound are retold here after BindingDB's records for patent US20250170104 (Helmholtz-Zentrum Fur Infektionsforschung, 2025).

Elastase, sequence (P14756 whole entry): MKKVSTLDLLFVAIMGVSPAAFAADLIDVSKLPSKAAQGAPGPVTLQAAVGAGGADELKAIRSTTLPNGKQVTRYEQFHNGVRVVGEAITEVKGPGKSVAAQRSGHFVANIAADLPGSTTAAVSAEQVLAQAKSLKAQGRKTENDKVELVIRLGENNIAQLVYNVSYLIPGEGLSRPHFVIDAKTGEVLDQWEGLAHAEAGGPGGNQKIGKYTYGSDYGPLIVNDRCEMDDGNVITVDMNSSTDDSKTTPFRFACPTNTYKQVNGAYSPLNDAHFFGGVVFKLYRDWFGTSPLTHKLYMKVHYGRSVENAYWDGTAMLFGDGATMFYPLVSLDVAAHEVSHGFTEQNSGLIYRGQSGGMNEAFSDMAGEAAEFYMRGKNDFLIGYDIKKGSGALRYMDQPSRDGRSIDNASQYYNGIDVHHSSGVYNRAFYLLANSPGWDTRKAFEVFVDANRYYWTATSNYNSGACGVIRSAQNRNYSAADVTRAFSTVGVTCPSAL

What is called IC50 is the concentration that gives 50% inhibition. Higher therefore signals lower potency. On to `CC(C)CC(C(=O)NO)C(=O)Nc1ccc(Cn2cc(CNS(=O)(=O)c3ccc(C(=O)O)cc3)nn2)cc1` (stereo unspecified) [US20250170104, Compound 209], for which the IC50 was found to be 44.6 nM. That is a double-digit nanomolar value.
